Tested on: Primary, passaged, normal human fibroblasts (NHFs)
Assay: Transfection of normal human fibroblasts with pCMV SPORT-β-gal DNA, β-gal activity
Assay type: cell-based
Conditions: 40 ng pCMV SPORT-β-gal DNA and 0.1 or 0.2 μl lipid per well, ND = no detectable activity
Method: The cationic lipid reagents and DNA were diluted separately into 25µl aliquots of serum-free DMEM, containing 1% NEAA. For LIPOFECTAMINE® PLUS, 7 14 μl of PLUS reagent was added to the DNA, mixed, and incubated for 15 minutes at room temperature. The diluted DNA was combined with the diluted lipid and incubated at room temperature for at least 15 minutes to allow the DNA and the lipid to form complexes. Following this incubation the complexes were added directly into the culture medium dropwise and mixed by rocking the culture plate back and forth. The cells were further incubated at 37° C. for a total of 24 hours to allow expression of the lacZ transgene encoded by the reporter plasmid, pCMV SPORT-β-gal. At 24 hours post-transfection, the growth medium and transfection complexes were removed from the wells, and the cells in each well were rinsed briefly with 1 ml of D-PBS (Dulbecco's PBS, Life Technologies, Rockville, Md.). The cells in each well were lysed by the addition of 0.15 to 2.0 ml of […]. The plates were frozen at −80° C. for a minimum of 2 hours, and thawed at room temperature or 37° C. The thawed cell lysates were cleared by centrifugation and the supernatants were assayed for β-gal activity using the enzymatic substrate ONPG. The concentration of total protein in cell lysates was also determined using a Bradford assay (Bio-Rad Laboratories, Hercules Calif.). β-gal activity in transfected cell extracts was calculated against a standard curve and expressed as ng β-gal per surface area of tissue culture plate (ng/cm2) to reflect activity per transfection, or as ng β-gal per μg of total protein (ng/μg) to reflect specific activity.
Primary, passaged, normal human fibroblasts (NHFs) were plated in 96-well plates at a density of 1.6×104 cells per well and transfected the following day. Cells in each well were transfected with 40 ng pCMV SPORT-β-gal DNA and 0.1 or 0.2 μl lipid.
The DNA and lipid were diluted separately into 10 μl of DMEM. The DNA was either used alone or pre-mixed with PLUS, insulin, transferrin, or an integrin-targeting peptide prior to complexing with the lipid. After 15 minutes of complexing, the DNA-lipid was added to cells. Cells were assayed for p-gal activity as described above.

Substance: N^1,N^4-dioleyl-N^1,N^4-di-[2-hydroxy-3-(N-spermine carboxamido)-aminopropyl]-diaminobutane [Compound of Formula VII]
- ACTIVITY (β-gal), DNA and PLUS (DNA pre-mixed with PLUS Reagent): 637.9 ng/βgal/cm^2
- ACTIVITY (β-gal), DNA and INSULIN (DNA pre-mixed with insulin): 195.7 ng/βgal/cm^2
- ACTIVITY (β-gal), DNA and INTEGRIN-TARGETING PRPTIDE (DNA pre-mixed with integrin-targeting peptide): 587.9 ng/βgal/cm^2
- ACTIVITY (β-gal), DNA and TRANSFERRIN (DNA pre-mixed with transferrin): 21.7 ng/βgal/cm^2
- ACTIVITY (β-gal), DNA (DNA used alone): 29.4 ng/βgal/cm^2

Reference: patent US9358300B2, “Transfection reagents” (LIFE TECHNOLOGIES CORPORATION, priority 1998, dated 2016)
